Measurements reported in US20240352010A1, “SUBSTITUTED 1,2,4-THIADIAZOLYL NICOTINAMIDES, SALTS OR N-OXIDES THEREOF AND THEIR USE AS HERBICIDALLY ACTIVE SUBSTANCES” (BayerAktiengesellschaft, priority 2021, published 2024).

What was measured:
Format in all cases: in vivo
[1] = tested on: Matricaria inodora (MATIN); assay: Herbicidal pre-emergence action, MATIN
Description: (§1) Seeds of mono- and dicotyledonous weed plants were sown in plastic pots (double sowings with one species of mono- and one species of dicotyledonous weed plants per pot), in sandy loam, and covered with soil. The compounds according to the invention, formulated in the form of wettable powders (WP) or as emulsifiable concentrates (EC), were applied to the surface of the covering soil as an aqueous suspension or as an emulsion, with the addition of 0.5% of an additive, at an application rate of 600 litres of water per hectare (converted). Following treatment, the pots were placed in a greenhouse and kept under optimum growth conditions for the test plants. The visual grading of the damage to the test plants is carried out after ca. 3 weeks in comparison to untreated controls (herbicidal effect in percent (%): 100% effect=plants have died, 0% effect=as control plants). Seeds of mono- and dicotyledonous weed plants were sown in plastic pots (double sowings with one species of mono- and one species of dicotyledonous weed plants per pot), in sandy loam, and covered with soil. The compounds according to the invention, formulated in the form of wettable powders (WP) or as emulsifiable concentrates (EC), were applied to the surface of the covering soil as an aqueous suspension or as an emulsion, with the addition of 0.5% of an additive, at an application rate of 600 litres of water per hectare (converted). Following treatment, the pots were placed in a greenhouse and kept under optimum growth conditions for the test plants. The visual grading of the damage to the test plants is carried out after ca. 3 weeks in comparison to untreated controls (herbicidal effect in percent (%): 100% effect=plants have died, 0% effect=as control plants).

[2] = tested on: Veronica persica (VERPE); assay: Herbicidal post-emergence action, VERPE
Description: (§2) Seeds of mono- and dicotyledonous weed plants were sown in plastic pots (double sowings with one species of mono- and one species of dicotyledonous weed plants per pot), in sandy loam, covered with soil and grown under controlled growth conditions. 2 to 3 weeks after sowing, the test plants were sprayed in the single-leaf stage. The compounds according to the invention, formulated in the form of wettable powders (WP) or as emulsifiable concentrates (EC), were sprayed onto the green plant parts as an aqueous suspension or as an emulsion, with the addition of 0.5% of an additive, at an application rate of 600 litres of water per hectare (converted). The test plants were placed in the greenhouse for ca. 3 weeks under optimum growth conditions, and then the effect of the preparations is assessed visually in comparison with untreated controls (herbicidal effect in percent (%): 100% effect=plants have died, 0% effect=as control plants). […]

[3] = tested on: Amaranthus retroflexus (AMARE); assay: Herbicidal pre-emergence action, AMARE
Description: as §1

[4] = tested on: Stellaria media (STEME); assay: Herbicidal post-emergence action, STEME
Description: as §2

[5] = tested on: Amaranthus retroflexus (AMARE); assay: Herbicidal post-emergence action, AMARE
Description: as §2

[6] = tested on: Stellaria media (STEME); assay: Herbicidal pre-emergence action, STEME
Description: as §1

[7] = tested on: Kochia scoparia (KCHSC); assay: Herbicidal post-emergence action, KCHSC
Description: as §2

[8] = tested on: Setaria viridis (SETVI); assay: Herbicidal pre-emergence action, SETVI
Description: as §1

[9] = tested on: Matricaria inodora (MATIN); assay: Herbicidal post-emergence action, MATIN
Description: as §2

[10] = tested on: Setaria viridis (SETVI); assay: Herbicidal post-emergence action, SETVI; conditions: 1280 g/ha, assessed visually after ca. 3 weeks vs untreated controls (Table B7)
Description: as §2

[11] = tested on: Poa annua (POAAN); assay: Herbicidal post-emergence action, POAAN
Description: as §2

[12] = tested on: Lolium rigidum (LOLRI); assay: Herbicidal pre-emergence action, LOLRI
Description: as §1

[13] = tested on: Abutilon theophrasti (ABUTH); assay: Herbicidal post-emergence action, ABUTH; conditions: 1280 g/ha, assessed visually after ca. 3 weeks vs untreated controls (Table B1)
Description: (§3) Seeds of mono- and dicotyledonous weed plants were sown in plastic pots (double sowings with one species of mono- and one species of dicotyledonous weed plants per pot), in sandy loam, covered with soil and grown under controlled growth conditions. 2 to 3 weeks after sowing, the test plants were sprayed in the single-leaf stage. The compounds according to the invention, formulated in the form of wettable powders (WP) or as emulsifiable concentrates (EC), were sprayed onto the green plant parts as an aqueous suspension or as an emulsion, with the addition of 0.5% of an additive, at an application rate of 600 litres of water per hectare (converted). The test plants were placed in the greenhouse for ca. 3 weeks under optimum growth conditions, and then the effect of the preparations is assessed visually in comparison with untreated controls (herbicidal effect in percent (%): 100% effect=plants have died, 0% effect=as control plants).

[14] = tested on: Kochia scoparia (KCHSC); assay: Herbicidal pre-emergence action, KCHSC; conditions: 1280 g/ha, visual grading after ca. 3 weeks vs untreated controls (Table A4)
Description: as §1

[15] = tested on: Poa annua (POAAN); assay: Herbicidal pre-emergence action, POAAN
Description: as §1

[16] = tested on: Digitaria sanguinalis (DIGSA); assay: Herbicidal post-emergence action, DIGSA; conditions: 1280 g/ha, assessed visually after ca. 3 weeks vs untreated controls (Table B12)
Description: as §3

[17] = tested on: Echinochloa crus-galli (ECHCG); assay: Herbicidal post-emergence action, ECHCG; conditions: 1280 g/ha, assessed visually after ca. 3 weeks vs untreated controls (Table B3)
Description: as §2

[18] = 320 g/ha, visual grading after ca. 3 weeks vs untreated controls (Table C3)
[19] = 1280 g/ha, visual grading after ca. 3 weeks vs untreated controls (Table A6)
[20] = 1280 g/ha, assessed visually after ca. 3 weeks vs untreated controls (Table B10)
[21] = 1280 g/ha, visual grading after ca. 3 weeks vs untreated controls (Table A11)
[22] = 1280 g/ha, assessed visually after ca. 3 weeks vs untreated controls (Table B9)
[23] = 1280 g/ha, assessed visually after ca. 3 weeks vs untreated controls (Table B11)
[24] = 320 g/ha, visual grading after ca. 3 weeks vs untreated controls (Table C6)
[25] = 1280 g/ha, visual grading after ca. 3 weeks vs untreated controls (Table A9)
[26] = 1280 g/ha, assessed visually after ca. 3 weeks vs untreated controls (Table B4)
[27] = 1280 g/ha, visual grading after ca. 3 weeks vs untreated controls (Table A8)
[28] = 1280 g/ha, assessed visually after ca. 3 weeks vs untreated controls (Table B6)
[29] = 320 g/ha, assessed visually after ca. 3 weeks vs untreated controls (Table D4)
[30] = 320 g/ha, assessed visually after ca. 3 weeks vs untreated controls (Table D6)
[31] = 1280 g/ha, assessed visually after ca. 3 weeks vs untreated controls (Table B8)
[32] = 1280 g/ha, visual grading after ca. 3 weeks vs untreated controls (Table A5)
[33] = 1280 g/ha, visual grading after ca. 3 weeks vs untreated controls (Table A7)

Compound | herbicidal effect in percent, MATIN [1, 18] [%] | herbicidal effect in percent, MATIN [1, 19] [%] | herbicidal effect in percent, VERPE [2, 20] [%] | herbicidal effect in percent, AMARE [3, 21] [%] | herbicidal effect in percent, STEME [4, 22] [%] | herbicidal effect in percent, AMARE [5, 23] [%] | herbicidal effect in percent, STEME [6, 24] [%] | herbicidal effect in percent, STEME [6, 25] [%] | herbicidal effect in percent, KCHSC [7, 26] [%] | herbicidal effect in percent, SETVI [8, 27] [%] | herbicidal effect in percent, MATIN [9, 28] [%] | herbicidal effect in percent, AMARE [5, 30] [%] | herbicidal effect in percent, POAAN [11, 31] [%] | herbicidal effect in percent, KCHSC [14] [%] | herbicidal effect in percent, POAAN [15, 33] [%] | further results
COc1nccc(C2CC2(F)F)c1C(=O)Nc1ncns1 (stereo not shown) [Example I-001, 4-(2,2-difluorocyclopropyl)-2-methoxy-N-(1,2,4-thiadiazol-5-yl)pyridine-3-carboxamide] | 90 | 90 | – | – | – | – | – | – | – | – | – | – | – | – | – | –
O=C(Nc1ncns1)c1c(C2CC2(F)F)ccnc1F (stereo not shown) [Example I-002, 4-(2,2-difluorocyclopropyl)-2-fluoro-N-(1,2,4-thiadiazol-5-yl)pyridine-3-carboxamide] | 90 | 100 | 90 | 100 | 90 | 90 | 90 | 90 | 90 | – | – | – | – | – | – | –
CC1CC1c1ccnc(Cl)c1C(=O)Nc1ncns1 (stereo not shown) [Example I-004] | – | 90 | 90 | 100 | 100 | 100 | – | 90 | 90 | 90 | 100 | 100 | – | – | – | herbicidal effect in percent, STEME [4, 29]: 90%; herbicidal effect in percent, SETVI [10]: 100%
O=C(Nc1ncns1)c1c(C2CC2)ccnc1C(F)(F)F [Example I-006] | 90 | 100 | 90 | 90 | 100 | 100 | 100 | 100 | 100 | 90 | – | 90 | 90 | 90 | 90 | herbicidal effect in percent, STEME ([4]; dosage printed 1280 g/ha in Table D4, assessed visually after ca. 3 weeks vs untreated controls): 90%; herbicidal effect in percent, LOLRI ([12]; 320 g/ha, visual grading after ca. 3 weeks vs untreated controls (Table C2)): 90%; herbicidal effect in percent, LOLRI [12, 32]: 90%; herbicidal effect in percent, ABUTH [13]: 90%; herbicidal effect in percent, POAAN ([15]; 320 g/ha, visual grading after ca. 3 weeks vs untreated controls (Table C4)): 90%; herbicidal effect in percent, DIGSA [16]: 90%; herbicidal effect in percent, KCHSC ([7]; dosage printed 1280 g/ha in Table D1, assessed visually after ca. 3 weeks vs untreated controls): 90%
COc1nccc(C2CC2)c1C(=O)Nc1ncns1 [Example I-007] | – | – | – | 100 | – | – | 90 | 90 | – | – | – | – | – | – | 90 | –
O=C(Nc1ncns1)c1cnccc1C1CC1 [Example I-008] | – | – | 90 | 100 | 100 | 100 | 90 | 90 | 90 | – | 100 | 90 | 90 | 90 | 90 | herbicidal effect in percent, AMARE ([3]; 320 g/ha, visual grading after ca. 3 weeks vs untreated controls (Table C8)): 90%
C=C(C)c1ccnc(Cl)c1C(=O)Nc1ncns1 [Example I-009] | – | 100 | – | – | 90 | 90 | – | 90 | – | 100 | – | – | – | – | – | herbicidal effect in percent, SETVI ([8]; 320 g/ha, visual grading after ca. 3 weeks vs untreated controls (Table C5)): 90%
O=C(Nc1nc(Br)ns1)c1c(C2CC2)ccnc1Cl [Example I-010] | 90 | 100 | 90 | 90 | 90 | 90 | – | 100 | – | – | 90 | – | 90 | 90 | – | herbicidal effect in percent, VERPE ([2]; 320 g/ha, assessed visually after ca. 3 weeks vs untreated controls (Table D5)): 90%; herbicidal effect in percent, MATIN ([9]; 320 g/ha, assessed visually after ca. 3 weeks vs untreated controls (Table D2)): 90%; herbicidal effect in percent, STEME [4, 29]: 90%; herbicidal effect in percent, POAAN ([11]; 320 g/ha, assessed visually after ca. 3 weeks vs untreated controls (Table D3)): 90%; herbicidal effect in percent, LOLRI [12, 32]: 90%; herbicidal effect in percent, ECHCG [17]: 90%
Cc1nsc(NC(=O)c2c(C3CC3)ccnc2Cl)n1 [Example I-011] | 100 | 100 | 90 | – | 90 | – | – | 90 | – | – | – | – | – | – | – | –
